# Assay results reported in ChEMBL document CHEMBL1154377, “Evaluation of basic, heterocyclic ring systems as templates for use as potassium competitive acid blockers (pCABs)” (Bioorg Med Chem Lett, 2009).
# Calls of active or inactive are those of the source. The calls are words filed in the database; no cut-off is given here.
# Columns and labels:
# [1] = Inhibition of H+/K+ ATPase at pH 7.4
# [2] = Chromatographic hydrophobicity index at pH 7.4 by fast gradient HPLC; format: physicochemical; conditions: buffer
# [3] = Inhibition of H+/K+ ATPase in parietal cells assessed as inhibition of pentagastrin-stimulated [14C]aminopyrine accumulation at 1 uM; format: cell-based
# Cytochrome P450 1A2 = molecular target: T1, Cytochrome P450 1A2 (Homo sapiens, UniProt P05177); test: Inhibition of CYP1A2; format: ADME
# T1 sequence (P05177 whole entry): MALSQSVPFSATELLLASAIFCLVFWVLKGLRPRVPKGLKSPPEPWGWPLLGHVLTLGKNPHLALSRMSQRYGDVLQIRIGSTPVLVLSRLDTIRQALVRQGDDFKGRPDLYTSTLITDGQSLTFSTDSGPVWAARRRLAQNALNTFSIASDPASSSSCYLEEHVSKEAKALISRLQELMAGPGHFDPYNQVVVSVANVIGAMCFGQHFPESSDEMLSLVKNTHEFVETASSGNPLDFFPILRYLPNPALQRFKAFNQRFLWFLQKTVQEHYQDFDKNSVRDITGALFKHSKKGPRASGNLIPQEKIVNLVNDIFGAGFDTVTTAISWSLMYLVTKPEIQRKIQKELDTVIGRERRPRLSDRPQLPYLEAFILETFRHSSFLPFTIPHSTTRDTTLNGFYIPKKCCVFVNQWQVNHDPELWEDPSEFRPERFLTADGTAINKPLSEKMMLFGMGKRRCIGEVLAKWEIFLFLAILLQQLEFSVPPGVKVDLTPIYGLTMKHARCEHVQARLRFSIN
# Cytochrome P450 2C19 = Cytochrome P450 2C19 (Homo sapiens, UniProt P33261); test: Inhibition of CYP2C19; format: ADME
# Cytochrome P450 2D6 = Cytochrome P450 2D6 (Homo sapiens, UniProt P10635); test: Inhibition of CYP2D6; format: ADME
# Cytochrome P450 3A4 [4] = molecular target: T2, Cytochrome P450 3A4 (Homo sapiens, UniProt P08684); test: Inhibition of CYP3A4 using diethoxyfluorescein substrate; format: ADME
# Cytochrome P450 3A4 [5] = molecular target: T2, Cytochrome P450 3A4; test: Inhibition of CYP3A4 using 7-benzyloxyquinoline substrate; format: ADME
# CYP3A4 = CYP3A4 (Homo sapiens, UniProt P08684); test: Inhibition of CYP3A4 assessed as ratio of IC50 at 0 mins to IC50 at 10 mins using diethoxyfluorescein substrate; format: ADME; conditions: probe diethoxyfluorescein; read-out: Ratio IC50
# CYP2D6 = CYP2D6 (Homo sapiens, UniProt P10635); test: Inhibition of CYP2D6 assessed as ratio of IC50 at 0 mins to IC50 at 10 mins; format: ADME; conditions: read-out: Ratio IC50
# [6] = Intrinsic clearance in rat liver microsomes; format: ADME, Microsome
# [7] = Intrinsic clearance in dog liver microsomes; format: ADME, Canis lupus familiaris, Microsome
# [8] = Intrinsic clearance in human liver microsomes; format: ADME, Microsome
# Cytochrome P450 2C9 = Cytochrome P450 2C9 (Homo sapiens, UniProt P11712)
# [9] = Inhibition of H+/K+ ATPase in parietal cells assessed as inhibition of histamine-stimulated [14C]aminopyrine accumulation
# [10] = Dissociation constant, pKa of the compound; format: physicochemical; conditions: read-out: pKa
# [11] = Inhibition of H+/K+ ATPase in parietal cells assessed as inhibition of pentagastrin-stimulated [14C]aminopyrine accumulation at 50 µM
# T2 sequence (P08684 whole entry): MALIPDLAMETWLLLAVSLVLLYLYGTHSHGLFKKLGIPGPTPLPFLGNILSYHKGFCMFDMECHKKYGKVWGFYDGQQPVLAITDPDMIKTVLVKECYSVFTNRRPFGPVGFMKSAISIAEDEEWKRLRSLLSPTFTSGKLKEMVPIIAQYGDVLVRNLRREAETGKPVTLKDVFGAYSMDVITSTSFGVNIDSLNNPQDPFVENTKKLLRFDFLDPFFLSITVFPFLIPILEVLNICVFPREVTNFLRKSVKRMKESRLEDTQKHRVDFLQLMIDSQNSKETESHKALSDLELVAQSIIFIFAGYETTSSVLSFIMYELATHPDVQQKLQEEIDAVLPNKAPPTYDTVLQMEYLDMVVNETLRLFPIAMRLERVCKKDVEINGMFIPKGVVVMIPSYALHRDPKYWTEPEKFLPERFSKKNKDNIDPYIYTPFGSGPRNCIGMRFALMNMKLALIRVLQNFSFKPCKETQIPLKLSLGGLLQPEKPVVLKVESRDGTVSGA
# Cytochrome P450 2C19, sequence (P33261 whole entry): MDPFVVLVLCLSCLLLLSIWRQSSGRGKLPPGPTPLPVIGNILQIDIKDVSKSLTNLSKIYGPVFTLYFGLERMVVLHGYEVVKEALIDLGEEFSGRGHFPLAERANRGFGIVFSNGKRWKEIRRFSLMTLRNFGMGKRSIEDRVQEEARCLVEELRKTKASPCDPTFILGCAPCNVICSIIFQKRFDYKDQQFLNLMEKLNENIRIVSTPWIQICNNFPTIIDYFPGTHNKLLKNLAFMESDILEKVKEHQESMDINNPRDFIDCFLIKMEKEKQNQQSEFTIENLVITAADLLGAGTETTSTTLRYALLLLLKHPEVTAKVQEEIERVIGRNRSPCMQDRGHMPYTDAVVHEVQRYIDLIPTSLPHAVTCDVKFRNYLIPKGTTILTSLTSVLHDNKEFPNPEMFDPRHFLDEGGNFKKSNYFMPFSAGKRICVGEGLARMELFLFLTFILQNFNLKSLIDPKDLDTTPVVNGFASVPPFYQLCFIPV
# Cytochrome P450 2D6, sequence (P10635 whole entry): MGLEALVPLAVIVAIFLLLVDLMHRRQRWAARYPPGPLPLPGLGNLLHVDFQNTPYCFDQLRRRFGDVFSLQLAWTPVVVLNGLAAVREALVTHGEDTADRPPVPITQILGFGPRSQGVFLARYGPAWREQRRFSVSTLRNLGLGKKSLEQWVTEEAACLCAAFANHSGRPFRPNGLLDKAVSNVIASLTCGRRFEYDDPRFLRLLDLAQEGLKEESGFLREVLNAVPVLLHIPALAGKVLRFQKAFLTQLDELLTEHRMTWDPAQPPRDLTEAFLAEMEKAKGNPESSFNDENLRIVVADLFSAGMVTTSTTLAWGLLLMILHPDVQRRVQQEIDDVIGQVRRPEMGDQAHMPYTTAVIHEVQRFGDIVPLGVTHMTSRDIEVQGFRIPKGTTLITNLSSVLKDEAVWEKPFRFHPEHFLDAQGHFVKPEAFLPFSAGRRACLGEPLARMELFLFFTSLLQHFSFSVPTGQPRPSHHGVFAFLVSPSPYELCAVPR
# Cytochrome P450 2C9, sequence (P11712 whole entry): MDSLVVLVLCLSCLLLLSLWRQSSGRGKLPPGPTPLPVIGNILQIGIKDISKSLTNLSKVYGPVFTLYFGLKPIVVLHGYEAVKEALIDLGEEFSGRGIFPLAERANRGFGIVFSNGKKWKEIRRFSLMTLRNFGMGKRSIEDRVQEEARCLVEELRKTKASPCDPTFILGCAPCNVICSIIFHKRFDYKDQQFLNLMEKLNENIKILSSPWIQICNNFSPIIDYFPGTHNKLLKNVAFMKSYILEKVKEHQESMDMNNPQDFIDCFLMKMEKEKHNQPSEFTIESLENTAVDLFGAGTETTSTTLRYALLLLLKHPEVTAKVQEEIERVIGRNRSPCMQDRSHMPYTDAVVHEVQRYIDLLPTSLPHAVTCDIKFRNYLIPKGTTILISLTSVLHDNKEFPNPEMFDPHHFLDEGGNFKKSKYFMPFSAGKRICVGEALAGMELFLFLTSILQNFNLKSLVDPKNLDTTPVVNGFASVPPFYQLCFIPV
# CYP2D6, sequence (P10635 whole entry): as the sequence (P10635 whole entry) above
# CYP3A4, sequence (P08684 whole entry): as the sequence (P08684 whole entry) above
pIC50 [1],chromatographic logD [2],pIC50 [3],pKa [10],SMILES,IC50 (Cytochrome P450 1A2),IC50 (Cytochrome P450 2C19),IC50 (Cytochrome P450 2D6),IC50 (Cytochrome P450 3A4 [4]),IC50 (Cytochrome P450 3A4 [5]),IC50 shift (CYP3A4),IC50 shift (CYP2D6),CLint scaled [6],CLint scaled [7],CLint scaled [8],IC50 (Cytochrome P450 2C9),IC50 [9],inhibition [11]
4,3.5,inactive,,Cc1cccc(C)c1CNc1cccn2c(C)nnc12,,,,,,,,,,,,,
6.8,2.04,,9.14,Cc1cccc(C)c1CNc1nccc2c1cc(C)n2C,41 µM,6.9 µM,< 0.1 µM,3.1 µM,4.3 µM,,,1.68 L/h/kg,1.02 L/h/kg,0.228 L/h/kg,66 µM,,22%
4.8,3.28,,7.42,Cc1cccc(C)c1CNc1ccnc2c1cc(C)n2C,,,,,,,,,,,,,36%

SMILES,pIC50 [1],chromatographic logD [2],pIC50 [3],pKa [10],IC50 (Cytochrome P450 1A2),IC50 (Cytochrome P450 2C19),IC50 (Cytochrome P450 2D6),IC50 (Cytochrome P450 3A4 [4]),IC50 (Cytochrome P450 3A4 [5]),IC50 shift (CYP3A4),IC50 shift (CYP2D6),CLint scaled [6],CLint scaled [7],CLint scaled [8],IC50 (Cytochrome P450 2C9),IC50 [9],inhibition [11]
Cc1c(C)n(C[C@H]2C[C@@H]2C)c2c(OCc3ccc(F)cc3)nncc12,6.8,,,,1.2 µM,5.1 µM,4.4 µM,6 µM,14 µM,1.2,0.6,1.8 L/h/kg,2.28 L/h/kg,0.96 L/h/kg,0.8 µM,0.282 µM,
